By IC50 is commonly meant the concentration needed to halve the response being measured.

The values that follow come from publication PMC5793070, “Bacillibactin and Bacillomycin Analogues with Cytotoxicities against Human Cancer Cell Lines from Marine Bacillus sp. PKU-MA00093 and PKU-MA00092” (Marine Drugs, 2018).

In series [1] the test system is breast cancer cell line MCF7. Nature of the series: MTT cytotoxicity assay against MCF7. As to the method:
(§1) Two human cancer cell lines, liver cancer cell line HepG2, and breast cancer cell line MCF7, were used in the assays.
(§2) HepG2 and MCF7 cell lines were purchased from Peking Union Medical College, Cell Bank (Beijing, China). In this study, the cells were grown in Dulbecco’s modified Eagle’s medium (Hyclone, Waltham, MA, USA), supplemented with 10% fetal bovine serum (FBS, PAN Biotech, Aidenbach, Germany), penicillin (100 U/mL), and streptomycin (100 µg/mL) in a humidified incubator containing 95% air and 5% CO2 at 37 °C. Cell viability was detected by MTT colorimetric assay. Briefly, the cells were treated with different concentrations of compounds (in DMSO stock) for 48 h, with taxol as the positive control. Then, culture supernatants were replaced with medium containing 0.5 mg/mL MTT for 4 h. The supernatant was removed and 100 μL of dimethyl sulfoxide was added. Absorbance was detected at 550 nm and cell viability was expressed as the mean percentage of the absorbance in treated vs. control cells. Different concentrations of compounds ranging from 0.1 to 40 µM were tested and each of the concentration was tested in parallel triplicate. Six concentration points in the slope region were used in the calculation of IC50 values. The IC50 values were calculated from the concentration–response curves that were generated by nonlinear regression with Graph Pad Prism 5 software (Graph Pad Software, Inc., San Diego, CA, USA).
Background: Tetrazolium dyes change colour on reduction, which living cells bring about.

The test system of series [2] is liver cancer cell line HepG2. The series is described as follows: MTT cytotoxicity assay against HepG2. As for the experimental part:
as §1, §2

Series [3] relates to human cancer cell line A498. The following applies: lipopeptide proposed as bacillomycin D only based on LC-MS analysis; result in words; cited from earlier work. As for the experimental part: (§3) Compounds 1–10 were tested for their antitumor activities.
The test system of series [4] is human cancer cell line A549. The settings on record: lipopeptide proposed as bacillomycin D only based on LC-MS analysis; result in words; cited from earlier work. As to the method: as §3
Series [5] has as its system human cancer cell line HCT-15. The settings on record: lipopeptide proposed as bacillomycin D only based on LC-MS analysis; result in words; cited from earlier work. As for the experimental part:
as §3

Like-named read-outs stand apart in the source and are kept apart here. Numbered stars: 1 amine (or outer) side, 2 acyl side, 3 side chain; on linkers, the order of the positions; unused ones are H or OH. Square brackets hold non-standard residues; d marks the D form. Peptide text beside a SMILES is read from it. Hexadecanoyl(3R-amino) = CCCCCCCCCCCCC[C@H](CC(=O)[*:2])N[*:1]; X1 = CCC(C)CCCCCCCCCC[C@H](CC(=O)[*:2])N[*:1]; X3 = CC(C)CCCCCCCCCC[C@H](CC(=O)[*:2])N[*:1]

For `CCCCCCCCCCCCC[C@@H]1CC(=O)N[C@@H](CC(N)=O)C(=O)N[C@H](Cc2ccc(O)cc2)C(=O)N[C@H](CC(N)=O)C(=O)N2CCC[C@H]2C(=O)N[C@@H](CCC(=O)O)C(=O)N[C@H](CO)C(=O)N[C@@H]([C@@H](C)O)C(=O)N1` [Compound 9, C16 bacillomycin D] (cyclo(E[dS]T[Hexadecanoyl(3R-amino)]N[dY][dN]P)), the IC50 in series [1] (human, 48 h) turned out to be 3.3 ± 0.1 µM; in series [2] (human, 48 h), 4.9 ± 0.2 µM.
In the case of `CC(C)CCCCCCCCCC[C@@H]1CC(=O)N[C@@H](CC(N)=O)C(=O)N[C@H](Cc2ccc(O)cc2)C(=O)N[C@H](CC(N)=O)C(=O)N2CCC[C@H]2C(=O)N[C@@H](CCC(=O)O)C(=O)N[C@H](CO)C(=O)N[C@@H]([C@@H](C)O)C(=O)N1` [Compound 8, iso-C16 bacillomycin D] (cyclo(E[dS]T[X3]N[dY][dN]P)), the IC50 in series [1] (human, 48 h) amounted to 2.9 ± 0.1 µM; in series [2] (human, 48 h), 5.1 ± 0.2 µM.
As to `CCC(C)CCCCCCCCCC[C@@H]1CC(=O)N[C@@H](CC(N)=O)C(=O)N[C@H](Cc2ccc(O)cc2)C(=O)N[C@H](CC(N)=O)C(=O)N2CCC[C@H]2C(=O)N[C@@H](CCC(=O)O)C(=O)N[C@H](CO)C(=O)N[C@@H]([C@@H](C)O)C(=O)N1` (stereo partly shown) [Compound 10, anteiso-C17 bacillomycin D] (cyclo(E[dS]T[X1]N[dY][dN]P)), the IC50 was 7.2 ± 0.2 µM in series [1] (human, 48 h) and over 10 µM in series [2] (human, 48 h).
With `CC(=O)O[C@H]1C(=O)[C@@]2(C)[C@H]([C@H](OC(=O)c3ccccc3)[C@]3(O)C[C@H](OC(=O)[C@H](O)[C@@H](NC(=O)c4ccccc4)c4ccccc4)C(C)=C1C3(C)C)[C@]1(OC(C)=O)CO[C@@H]1C[C@@H]2O` [Taxol, reference compound], the IC50 is 0.043 ± 0.003 µM in series [1] (Homo sapiens, MCF7, 48 h, read-out: Cytotoxicity (IC50 Values in µM), MCF7) and 0.075 ± 0.004 µM in series [2] (Homo sapiens, HepG2, 48 h, read-out: Cytotoxicity (IC50 Values in µM), HepG2).
On to bacillomycin D [Compound 5], for which the “inhibition rate, MCF7” value in series [1] (MCF7, at the concentration of 10 µM, MTT, 48 h, described as no cytotoxicities) is “below 20%”. The “inhibition rate, HepG2” value in series [2] (HepG2, at the concentration of 10 µM, MTT, 48 h, described as no cytotoxicities) is “below 20%”. Further, the “inhibitory activities against A498” value in series [3] is “inhibitory activities”. For the same compound, the “inhibitory activities against A549” value in series [4] is listed as “inhibitory activities”. Besides, the “inhibitory activities against HCT-15” value in series [5] is “inhibitory activities”.
